{"source": "patent US20200404921A1", "about": "“SOIL TREATMENT WITH METAM SALTS AND ONE OR MORE OF CALCIUM THIOSULFATE, CALCIUM CHLORIDE AND CALCIUM NITRATE” (Tessenderlo Kerley, Inc., priority 2018, published 2020)", "origin": "cited, not measured here", "key": {"[1]": {"system": "soilborne disease", "details": "about 40 gallons of metam sodium per acre (190 Kg of active ingredient/ha), commercial conditions"}, "[2]": {"details": "more soluble than gypsum"}}}
{"compound": "CNC(=S)S", "note": "[metam sodium, sodium methyldithiocarbamate]", "values": [{"measurement": "reduction of certain soilborne disease", "setting": "[1]", "value": "~70", "unit": "%"}]}
{"compound": "O=S([O-])([O-])=S.[Ca+2]", "note": "[calcium thiosulfate]", "values": [{"measurement": "solubility relative to gypsum", "setting": "[2]", "value": 125, "unit": "times"}]}
